Data as given in patent US9827292B2, “Use of KGF in the treatment of menopausal disorders” (Università degli Studi di Roma “La Sapienza”, priority 2012, dated 2017).

Experiment: In vitro release test of Pluronic F127 hydrogel with model molecules
Format: physicochemical
Settings: F127 20% w/v, 60 ml H2O, 37° C., FIG. 6D
Protocol: 2 mL of loaded hydrogel containing 4 mg of myoglobin or prednisolone in a solution of 20% Pluronic F127 w/v were introduced into a dialysis membrane bag (MWCO 3500 Da), and the dialysis bag sealed at the end was incubated in 60 mL of release medium (distilled water) at 37° C. and was stirred at a rate of 50 rpm. Saturation conditions were avoided by means of frequent substitution of fresh water. At predetermined intervals, aliquots of 0.5 mL of release medium were removed and substituted with an equal volume of fresh solution. The release behaviour in vitro of hydrogel loaded with myoglobin was compared with that of hydrogel loaded with prednisolone. All the assays were conducted in triplicate. Release profiles were expressed in cumulative release percentages over time.
The loaded hydrogels were prepared by solubilising at low temperature, in a 5 ml vial, an exact quantity of model molecule (approximately 4-5 mg) in 2 ml of solution of F127 20% w/v; the solution was then brought to the hydrogel state by placing the hermetically sealed vial at 37° C. The vial, closed at the head with a perforated mesh, was then introduced into the release medium (60 ml bidistilled H2O, T=37° C.) and held under constant and gentle stirring. The release therefore occurred by means of diffusion from the upper surface of the gel to the dissolution medium. […]

Row | Molecule | release profile from Pluronic F127 hydrogel, comparison of the two model molecules
1 | C[C@]12C=CC(=O)C=C1CC[C@@H]1[C@@H]2[C@@H](O)C[C@@]2(C)[C@H]1CC[C@]2(O)C(=O)CO [prednisolone] | almost identical for the two different molecules
2 | myoglobin | almost identical for the two different molecules
